“And” between values parts separate entries of the source, which are not always exact repeats. Equal entries are not always repeated.
Experiment: xn = mol fraction of the nth substance listed

OCCOCCO + O
Settings | viscosity
293.15 K, 100 kPa, x2 = 0.013 | 37.31 mPa·s
293.15 K, 100 kPa, x2 = 0.037 | 35.38 mPa·s and 33.15 mPa·s
293.15 K, 100 kPa, x2 = 0.038 | 34.7 mPa·s
293.15 K, 100 kPa, x2 = 0.075 | 34.97 mPa·s
293.15 K, 100 kPa, x2 = 0.082 | 34.55 mPa·s
298.15 K, 100 kPa, x2 = 0.013 | 29.02 mPa·s
298.15 K, 100 kPa, x2 = 0.037 | 27.76 mPa·s
298.15 K, 100 kPa, x2 = 0.075 | 27.47 mPa·s
298.15 K, 100 kPa, x2 = 0.082 | 27.12 mPa·s
298.15 K, 101.33 kPa, x2 = 0.1041 | 25.71 mPa·s
298.15 K, 101.33 kPa, x2 = 0.2105 | 24.14 mPa·s
298.15 K, 101.33 kPa, x2 = 0.2697 | 22.9 mPa·s
298.15 K, 101.33 kPa, x2 = 0.4009 | 19.9 mPa·s
298.15 K, 101.33 kPa, x2 = 0.5145 | 16.51 mPa·s
298.15 K, 101.33 kPa, x2 = 0.6157 | 12.99 mPa·s
298.15 K, 101.33 kPa, x2 = 0.7095 | 9.442 mPa·s
298.15 K, 101.33 kPa, x2 = 0.825 | 5.193 mPa·s
298.15 K, 101.33 kPa, x2 = 0.9059 | 2.772 mPa·s
303.15 K, 100 kPa, x2 = 0.013 | 23.06 mPa·s
303.15 K, 100 kPa, x2 = 0.038 | 21.92 mPa·s
303.15 K, 100 kPa, x2 = 0.075 | 21.95 mPa·s
303.15 K, 101 kPa, x1 = 0.002 | 0.836 mPa·s
303.15 K, 101 kPa, x1 = 0.004 | 0.863 mPa·s
303.15 K, 101 kPa, x1 = 0.005 | 0.883 mPa·s
303.15 K, 101 kPa, x1 = 0.007 | 0.91 mPa·s
303.15 K, 101 kPa, x1 = 0.009 | 0.938 mPa·s
303.15 K, 101 kPa, x1 = 0.01 | 0.975 mPa·s and 1.02 mPa·s and 1.076 mPa·s
303.15 K, 101 kPa, x1 = 0.018 | 1.171 mPa·s
303.15 K, 101.33 kPa, x1 = 0.0004 | 0.778 mPa·s
303.15 K, 101.33 kPa, x1 = 0.0007 | 0.785 mPa·s
303.15 K, 101.33 kPa, x1 = 0.0015 | 0.788 mPa·s
303.15 K, 101.33 kPa, x1 = 0.0027 | 0.804 mPa·s
303.15 K, 101.33 kPa, x1 = 0.0047 | 0.836 mPa·s
303.15 K, 101.33 kPa, x1 = 0.0193 | 1.02 mPa·s
303.15 K, 101.33 kPa, x1 = 0.0548 | 1.579 mPa·s
303.15 K, 101.33 kPa, x1 = 0.0991 | 2.467 mPa·s
303.15 K, 101.33 kPa, x1 = 0.1966 | 4.98 mPa·s
303.15 K, 101.33 kPa, x1 = 0.2956 | 7.943 mPa·s
303.15 K, 101.33 kPa, x1 = 0.3956 | 10.97 mPa·s
303.15 K, 101.33 kPa, x1 = 0.4905 | 13.62 mPa·s
303.15 K, 101.33 kPa, x1 = 0.6406 | 17.06 mPa·s
303.15 K, 101.33 kPa, x1 = 0.8543 | 20.37 mPa·s
308.15 K, 100 kPa, x2 = 0.013 | 18.69 mPa·s
308.15 K, 100 kPa, x2 = 0.037 | 18.11 mPa·s and 16.84 mPa·s
308.15 K, 100 kPa, x2 = 0.082 | 17.7 mPa·s
308.15 K, 101 kPa, x1 = 0.002 | 0.736 mPa·s
308.15 K, 101 kPa, x1 = 0.004 | 0.753 mPa·s
308.15 K, 101 kPa, x1 = 0.005 | 0.805 mPa·s
308.15 K, 101 kPa, x1 = 0.007 | 0.832 mPa·s
308.15 K, 101 kPa, x1 = 0.009 | 0.867 mPa·s
308.15 K, 101 kPa, x1 = 0.01 | 0.902 mPa·s and 0.938 mPa·s and 0.991 mPa·s
308.15 K, 101 kPa, x1 = 0.018 | 1.082 mPa·s
308.15 K, 101 kPa, x1 = 0.02 | 1.028 mPa·s
308.15 K, 101 kPa, x1 = 0.7525 | 15.65 mPa·s
308.15 K, 101.33 kPa, x1 = 0.0004 | 0.704 mPa·s
308.15 K, 101.33 kPa, x1 = 0.0007 | 0.71 mPa·s
308.15 K, 101.33 kPa, x1 = 0.0015 | 0.717 mPa·s
308.15 K, 101.33 kPa, x1 = 0.0027 | 0.73 mPa·s
308.15 K, 101.33 kPa, x1 = 0.0047 | 0.749 mPa·s
308.15 K, 101.33 kPa, x1 = 0.0193 | 0.905 mPa·s
308.15 K, 101.33 kPa, x1 = 0.0991 | 2.107 mPa·s
308.15 K, 101.33 kPa, x1 = 0.1966 | 4.169 mPa·s
308.15 K, 101.33 kPa, x1 = 0.2956 | 6.484 mPa·s
308.15 K, 101.33 kPa, x1 = 0.3956 | 8.911 mPa·s
308.15 K, 101.33 kPa, x1 = 0.4905 | 10.95 mPa·s
308.15 K, 101.33 kPa, x1 = 0.5794 | 12.64 mPa·s
308.15 K, 101.33 kPa, x1 = 0.775 | 15.47 mPa·s
308.15 K, 101.33 kPa, x1 = 0.8543 | 16.25 mPa·s
308.15 K, 101.33 kPa, x1 = 0.917 | 16.82 mPa·s
313.15 K, 100 kPa, x2 = 0.013 | 15.39 mPa·s
313.15 K, 100 kPa, x2 = 0.037 | 14.96 mPa·s
313.15 K, 100 kPa, x2 = 0.038 | 15.25 mPa·s
313.15 K, 100 kPa, x2 = 0.075 | 14.8 mPa·s
313.15 K, 101 kPa, x1 = 0.002 | 0.67 mPa·s
313.15 K, 101 kPa, x1 = 0.004 | 0.685 mPa·s
313.15 K, 101 kPa, x1 = 0.005 | 0.703 mPa·s
313.15 K, 101 kPa, x1 = 0.007 | 0.738 mPa·s
313.15 K, 101 kPa, x1 = 0.009 | 0.78 mPa·s
313.15 K, 101 kPa, x1 = 0.01 | 0.83 mPa·s and 0.872 mPa·s and 0.907 mPa·s
313.15 K, 101 kPa, x1 = 0.018 | 0.994 mPa·s
313.15 K, 101 kPa, x1 = 0.02 | 0.958 mPa·s
318.15 K, 100 kPa, x2 = 0.013 | 12.84 mPa·s
318.15 K, 100 kPa, x2 = 0.037 | 12.51 mPa·s
318.15 K, 100 kPa, x2 = 0.038 | 12.4 mPa·s
318.15 K, 100 kPa, x2 = 0.075 | 12.37 mPa·s
318.15 K, 101 kPa, x1 = 0.002 | 0.612 mPa·s
318.15 K, 101 kPa, x1 = 0.004 | 0.621 mPa·s
318.15 K, 101 kPa, x1 = 0.005 | 0.654 mPa·s
318.15 K, 101 kPa, x1 = 0.007 | 0.688 mPa·s
318.15 K, 101 kPa, x1 = 0.009 | 0.729 mPa·s
318.15 K, 101 kPa, x1 = 0.01 | 0.779 mPa·s and 0.821 mPa·s and 0.864 mPa·s
318.15 K, 101 kPa, x1 = 0.018 | 0.949 mPa·s
318.15 K, 101 kPa, x1 = 0.02 | 0.906 mPa·s
323.15 K, 100 kPa, x2 = 0.013 | 10.85 mPa·s
323.15 K, 100 kPa, x2 = 0.037 | 10.58 mPa·s and 9.873 mPa·s
323.15 K, 100 kPa, x2 = 0.038 | 10.49 mPa·s
323.15 K, 100 kPa, x2 = 0.075 | 10.44 mPa·s
323.15 K, 100 kPa, x2 = 0.082 | 10.35 mPa·s
323.15 K, 101 kPa, x1 = 0.002 | 0.555 mPa·s
323.15 K, 101 kPa, x1 = 0.004 | 0.571 mPa·s
323.15 K, 101 kPa, x1 = 0.005 | 0.587 mPa·s
323.15 K, 101 kPa, x1 = 0.007 | 0.619 mPa·s
323.15 K, 101 kPa, x1 = 0.009 | 0.667 mPa·s
323.15 K, 101 kPa, x1 = 0.01 | 0.707 mPa·s and 0.747 mPa·s and 0.78 mPa·s
323.15 K, 101 kPa, x1 = 0.018 | 0.869 mPa·s
323.15 K, 101 kPa, x1 = 0.02 | 0.828 mPa·s
